Entries after “also recorded” stand apart in the source; their conditions may differ.
Key:
PPARγ = target: T1, PPARγ (Homo sapiens, UniProt P37231); test: PathHunter NHRscan CHO cell-based functional protein interaction assay, PPARγ agonist; details: CHO cells, 10 concentrations up to 100 μM; positive control troglitazone; read-out: concentration with PPARγ agonist activity
T1 construct: host or cells: Chinese hamster ovary (CHO)
T1 sequence (P37231 1-505): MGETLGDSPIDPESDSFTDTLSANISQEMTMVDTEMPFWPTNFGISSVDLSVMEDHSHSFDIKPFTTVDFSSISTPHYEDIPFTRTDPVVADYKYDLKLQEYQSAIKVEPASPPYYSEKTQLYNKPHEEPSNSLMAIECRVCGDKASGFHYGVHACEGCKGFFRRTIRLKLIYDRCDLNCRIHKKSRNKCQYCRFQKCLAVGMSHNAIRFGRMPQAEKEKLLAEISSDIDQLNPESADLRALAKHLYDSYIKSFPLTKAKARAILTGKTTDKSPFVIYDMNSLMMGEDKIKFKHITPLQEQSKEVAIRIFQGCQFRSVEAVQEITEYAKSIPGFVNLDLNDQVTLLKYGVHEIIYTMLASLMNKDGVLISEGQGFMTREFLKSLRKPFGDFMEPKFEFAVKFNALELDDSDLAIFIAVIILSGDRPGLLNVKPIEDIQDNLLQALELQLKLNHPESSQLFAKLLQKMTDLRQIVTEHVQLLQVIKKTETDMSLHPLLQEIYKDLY
Description: (§1) Chinese hamster ovary (CHO, cell line 93-0457C2) cell-based functional protein interaction assays for PPARα, δ, and γ that are part of the Eurofins/DiscoverX PathHunter NHRscan panel (Fremont, Calif.) were used to evaluate C15:0 and C17:0 PPARα, δ and γ agonist activities at 10 concentrations (up to 100 μM). Effective concentrations (EC:50) and maximum activities were determined in relation to positive controls (GW7647 for PPARα, L-165.041 for PPARδ, and troglitazone for PPARγ). Detailed methods used for these assays and assay readouts are available from Eurofins/DiscoverX.

[1] = Body weight of mice fed a high-fat diet with daily oral supplementation; type: in vivo, male C57BL/6J mice; details: for Body weight / Body weight change (%): high fat diet, n = 10; for percent body weight gain / weight-lowering effect compared to non-supplemented controls: high fat diet mice, C15:0 5 mg/kg, C17:0 5 and 35 mg/kg daily oral
Source text: This study assessed the effects of daily oral C15:0 and C17:0 supplementation on the body weight of mice fed a high-fat diet compared to non-supplemented controls.
Forty 6-week old male C57BL/6J mice (Jackson Laboratories, Bar Harbor, Me.) were fed a high fat diet (HFD, 60% kilocalories fat, D12492 Research Diets Inc., New Brunswick, N.J.) for eight weeks. Animals were randomly assigned to one of the following four study groups (10 per group) on Day −1 based on body weight: Group 1 (HFD non-supplemented controls), Group 2 (daily oral 5 mg/kg heptadecanoic acid, C17:0), Group 3 (daily oral 35 mg/kg heptadecanoic acid, C17:0), and Group 4 (daily oral 5 mg/kg pentadecanoic acid, C15:0). Group sizes for this pilot study were based on numerous published studies initially evaluating the effects of other natural small molecules on similar metabolic indices in the same model. Animals were provided the vehicle (1×PBS) or test articles daily via gastric gavage for 12 weeks. Animals were fed the HFD throughout the study. The study was conducted by Charles River Laboratories (Shrewsbury, Mass.), where animals were housed singly in solid bottom polycarbonate cages with Beta-chip contact bedding and enviro-dri nesting material, with temperature and humidity ranges of 18° to 26° C. and 30 to 70%, respectively. A 12 hr light cycle was used, and water and food were provided ad libitum. Body weights and body weight changes were recorded weekly throughout the study. Due to low sample sizes and inability to assume normal distributions, Wilcoxon tests were used to compare body weight values between supplemented and non-supplemented controls; a two-sided P value ≤0.05 was defined as significant.

[2] = target: T2, cannabinoid receptor 2 (CB2) (Homo sapiens, UniProt P34972); test: SAFETYscan E/IC50 ELECT functional assay, CB2 agonist activity; type: cell-based; details: at 20 μM; relative to positive control CP 55940 assigned 100%
T2 construct: purchased DiscoverX/Eurofins, Fremont, Calif
T2 sequence (P34972 whole entry): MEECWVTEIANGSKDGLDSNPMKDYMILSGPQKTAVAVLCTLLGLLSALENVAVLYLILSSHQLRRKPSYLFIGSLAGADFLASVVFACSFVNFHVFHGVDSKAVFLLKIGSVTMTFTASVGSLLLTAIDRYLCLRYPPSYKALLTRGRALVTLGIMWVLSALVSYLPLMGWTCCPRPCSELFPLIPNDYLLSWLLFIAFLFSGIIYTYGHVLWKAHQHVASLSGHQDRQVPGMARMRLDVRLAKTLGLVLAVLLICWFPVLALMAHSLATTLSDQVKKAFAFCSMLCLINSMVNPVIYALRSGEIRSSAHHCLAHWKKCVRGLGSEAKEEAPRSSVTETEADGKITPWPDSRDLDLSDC
Source text: (§2) In order to evaluate potential pharmacologic targets of pentadecanoic acid, this study examined agonist and antagonist activities of synthetic pentadecanoic acid (Sigma-Aldrich Product W433400) across 78 assays using SAFETYscan E/IC50 ELECT (DiscoverX/Eurofins, Fremont, Calif.). Briefly, a variety of standardized and optimized functional assays were used, including G protein coupled receptors (ADORA2A, ADRA1A, ADRA2A, ADRB1, ADRB2, CB1, CB2, CCK1, D1, D2S, ETA, H1, H2, M1 M2, M3, OPRD1, OPRK1, OPRM1, 5HTR1A, 5HTR1B, 5HTR2A, 5HTR2B, AVPR1A), kinases (LCK, INSR, VEGFR2, ROCK1), transporters (DAT, NET, SERT), ion channels (GABAA, 5-HT3, CA1.2, HERG, KVLQT1/MINK, NA1.5, NMDAR1/2B, NACHR), nuclear receptors (AR, GR), and non-kinase enzymes (COX1, COX2, ACHE, MAOA, PDE3A, PDE4D2). Ten-point concentration curves for both agonist (EC50) and antagonist (IC50) activity were established for each target. Maximum activity (%) was also determined based on comparisons with internal positive controls, which were assigned 100% activity.

[3] = target: T3, cannabinoid receptor 1 (CB1) (Homo sapiens, UniProt P21554); test: SAFETYscan E/IC50 ELECT functional assay, CB1 agonist activity; type: cell-based; details: at 20 μM; relative to positive control CP 55940 assigned 100%
T3 construct: purchased DiscoverX/Eurofins, Fremont, Calif
T3 sequence (P21554 whole entry): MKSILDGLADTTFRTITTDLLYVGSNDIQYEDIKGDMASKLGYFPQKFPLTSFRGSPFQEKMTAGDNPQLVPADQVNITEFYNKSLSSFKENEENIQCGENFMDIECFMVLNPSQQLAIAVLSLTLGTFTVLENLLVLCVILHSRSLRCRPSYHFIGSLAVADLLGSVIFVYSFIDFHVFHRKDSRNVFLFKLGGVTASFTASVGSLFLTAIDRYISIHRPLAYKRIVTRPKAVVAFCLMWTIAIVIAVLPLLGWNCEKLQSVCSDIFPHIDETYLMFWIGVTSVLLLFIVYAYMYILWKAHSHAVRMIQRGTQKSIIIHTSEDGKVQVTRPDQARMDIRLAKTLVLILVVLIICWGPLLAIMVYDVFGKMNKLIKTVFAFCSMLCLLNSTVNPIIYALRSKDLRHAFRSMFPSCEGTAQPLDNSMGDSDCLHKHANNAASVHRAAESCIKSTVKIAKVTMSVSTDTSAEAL
Source text: as §2

PPARα = target: T4, PPARα (Homo sapiens, UniProt Q07869); test: PathHunter NHRscan CHO cell-based functional protein interaction assay, PPARα agonist; details: CHO cells, 10 concentrations up to 100 μM; for EC50: read-out: effective concentration needed to reach half-maximum PPARα activity
T4 construct: host or cells: Chinese hamster ovary (CHO)
T4 sequence (Q07869 1-468): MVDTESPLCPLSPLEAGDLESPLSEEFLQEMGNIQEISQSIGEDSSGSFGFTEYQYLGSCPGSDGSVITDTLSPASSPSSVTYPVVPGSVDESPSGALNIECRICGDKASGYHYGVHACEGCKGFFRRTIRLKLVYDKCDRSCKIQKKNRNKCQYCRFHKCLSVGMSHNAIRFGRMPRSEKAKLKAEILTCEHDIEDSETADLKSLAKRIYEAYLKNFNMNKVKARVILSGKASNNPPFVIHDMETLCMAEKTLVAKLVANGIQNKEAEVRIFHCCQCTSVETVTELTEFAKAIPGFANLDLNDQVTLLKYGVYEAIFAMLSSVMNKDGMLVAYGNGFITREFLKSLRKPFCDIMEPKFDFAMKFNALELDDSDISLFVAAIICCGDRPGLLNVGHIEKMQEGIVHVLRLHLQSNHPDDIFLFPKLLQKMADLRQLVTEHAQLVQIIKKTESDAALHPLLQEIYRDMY
Description: as §1

PPARδ = target: T5, PPARδ (Homo sapiens, UniProt Q03181); test: PathHunter NHRscan CHO cell-based functional protein interaction assay, PPARδ agonist; details: CHO cells, 10 concentrations up to 100 μM; for EC50: read-out: effective concentration needed to reach half-maximum PPARδ activity
T5 construct: host or cells: Chinese hamster ovary (CHO)
T5 sequence (Q03181 1-441): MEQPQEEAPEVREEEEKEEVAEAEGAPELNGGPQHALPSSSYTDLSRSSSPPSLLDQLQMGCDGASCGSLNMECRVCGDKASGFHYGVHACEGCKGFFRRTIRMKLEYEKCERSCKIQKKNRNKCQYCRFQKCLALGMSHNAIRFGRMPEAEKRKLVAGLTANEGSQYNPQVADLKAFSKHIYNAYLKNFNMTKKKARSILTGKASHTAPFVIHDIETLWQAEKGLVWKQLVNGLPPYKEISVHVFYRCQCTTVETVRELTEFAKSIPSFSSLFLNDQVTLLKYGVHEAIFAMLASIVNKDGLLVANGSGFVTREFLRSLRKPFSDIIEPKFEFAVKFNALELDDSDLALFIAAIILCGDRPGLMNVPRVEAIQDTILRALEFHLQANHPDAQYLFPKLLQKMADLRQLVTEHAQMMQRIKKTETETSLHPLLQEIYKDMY
Description: as §1

[4] = Voluntary customer surveys after daily oral C15:0 supplement (fatty15); type: in vivo, human
Description: An odd-chain saturated fatty acid dietary supplement, containing an encapsulated pure (>98%) free fatty acid C15:0 powder and called fatty15™, was launched as a consumer health product. Recommended dosing was a single, […] capsule taken orally once a day. Based on our studies with obese mice, we hypothesized that daily oral C15:0 supplementation would decrease snacking and/or improve body weight among customers.
6-Week Survey. Six weeks following receipt of the C15:0 supplement, customers were provided a voluntary electronic questionnaire to evaluate potential near-term benefits, including the question, ‘Overall how much would you agree with the following statement: Since starting fatty15, I feel less hungry between meals, snack less, and/or eat less during meals.’ Survey responders were asked to select a number between 1 and 10, in which 1=Strongly disagree and 10=Strongly agree. A response of 7 or greater was considered an agreement with the statement. Survey responders were also asked if fatty15™ had become a part of their daily health routine.
4-Month Survey. Approximately 4 months following receipt of the C15:0 supplement, customers were provided a second voluntary electronic questionnaire to evaluate potential longer-tem benefits, including the question, ‘Which of the following (if any) have you experienced since starting fatty15, even if this experience has been subtle?’ Two of the possible responses were ‘Healthier eating, including less snacking’ and ‘Healthier body weight’.

[5] = 5 mg/kg daily oral gavage for 12 weeks
[6] = 5 mg/kg daily oral gavage for 12 weeks, *p < 0.05 compared to controls
[7] = after 4 months of daily oral 100 mg, 44 responders
[8] = 35 mg/kg daily oral gavage for 12 weeks

| SMILES | EC50 (PPARγ) [µM] | Body weight [1, 5] [g] | Body weight change (%) [1, 6] | percent body weight gain / weight-lowering effect compared to non-supplemented controls [1] | CB2 agonist activity [2] [%] | CB1 agonist activity [3] [%] | maximum PPARα agonist activity compared to positive control GW7647 (PPARα) [%] | EC50 (PPARα) [µM] | maximum PPARδ agonist activity compared to positive control L-165,041 (PPARδ) [%] | EC50 (PPARδ) [µM] | customers reporting healthier body weight [4, 7] [%] | customers reporting healthier eating, including less snacking [4, 7] [%] | customers reporting feeling less hungry between meals, snacking less, and/or eating less during meals ([4]; after 6 weeks of daily oral 100 mg, 114 responders) [%] | satiety reported by patients taking the dietary supplement ([4]; dietary supplement) | Body weight [1, 8] [g] | Body weight change (%) [1, 8] [%] |
| --- | --- | --- | --- | --- | --- | --- | --- | --- | --- | --- | --- | --- | --- | --- | --- | --- |
| CCCCCCCCCCCCCCC(=O)O [C15:0, pentadecanoic acid] | ≥ 100 | 41 ± 5 | 120 ± 6* % | weight-lowering effect was observed; also recorded: lower percent body weight gain | 18.2 | 24.5 | 65.8 | 11.5 | 52.8 | 2.7 | 21 | 33 | 46 | increased satiety | – | – |
| CCCCCCCCCCCCCCCCC(=O)O [C17:0, heptadecanoic acid] | ≥ 100 | 43 ± 6 | 127 ± 9% | weight-lowering effect was not observed; also recorded: did not significantly decrease percent body weight | – | – | – | > 100 | 39.8 | 17.4 | – | – | – | – | 41 ± 7 | 122 ± 12 |

Source: patent US20230201153A1, “COMPOSITIONS AND METHODS FOR TREATMENT OF OBESITY” (EPITRACKER, INC., priority 2020, published 2023)
